Results on 2 compounds are retold here after US20250263376A1, “(E)-N-CINNAMOYLAMINOALKANOLS WITH MELANOGENESIS INHIBITORY ACTIVITY” (Uniwersytet Jagiellonski, priority 2024, published 2025).

Data set [1] addresses T1, tyrosinase released from B16-F10 cells (Mus musculus, UniProt P11344).
T1 construct: endogenous in cells; host or cells: B16-F10 murine melanoma cells (alpha-MSH stimulated), Triton X-100 lysate
In words: Inhibition of tyrosinase activity released from B16-F10 cells. To be noted: 24 h incubation, α-MSH, L-DOPA 0.5 mM. It is filed as cell-based, murine. The procedure: Inhibition of Tyrosinase Activity Released from B16-F10 Cells
50,000 cells were placed in each well of a 24-well plate (in F10-Ham medium, 1% FBS). After 24 h of culture, the tested compounds were added in fresh medium (DMEM, 1% FBS), with an additional 5 μM of a-melanocorticotropic hormone (a-MSH) in the medium to induce melanogenesis. Three wells on the plate constituted a control sample without the melanogenesis inducer (a-MSH) and without the tested compounds. After 24 hours of incubation under these conditions, the medium was removed and the cells were washed twice with PBS. 100 μL of lysis buffer composed of 90 μL of 50 mM potassium phosphate buffer, 5 μL of 0.1 mM phenylmethylsulfonyl fluoride and 5 μL of 1% Triton X-100 were added to the wells. The plates were placed at −80° C. for 30 minutes. Cell lysates were then centrifuged for 30 min (4° C., 12,000 rpm), and then 80 μL of the supernatant was transferred to 96-well plates. […] After a 30-minute incubation, the absorbance was measured at 475 nm using a microplate reader. The percentage of inhibition of tyrosinase activity was calculated using the formula: [(AC−AT)/Ac]×100, where AC—is the absorbance of the negative control (from wells in which cells were cultured without the tested compounds), AT—is the absorbance of the sample from wells in which cells were cultured in the presence of the test compound.

Data set [2] relates to human reconstructed epidermis Episkin. In words: Skin permeation studies in reconstructed human epidermis Episkin. In kind it is in vitro ADME. The procedure: The tested substance A-111 in a macrogol formulation (2% A-111 in the PEG400+PEG800 base) was applied onto the epidermis in an amount of approximately 10 mg/cm^2 (“finite dose application”) using a sterile inoculation loop. The amount applied was weighed accurately. As a control, a macrogol formulation without the test substance was applied onto the epidermis. The finished experimental plate was incubated at 32° C. At specific time intervals, aliquots of the receptor fluid (0.5 mL) were collected for the analysis and replaced with 0.5 mL of fresh receptor fluid. After 24 h of culture, all of the receptor fluid was collected. The examined tissue was washed with cotton buds soaked in methanol. The donor and receptor compartments were washed with methanol, and the epidermis was separated from the inserts and transferred to methanol. Samples were stored at −20° C. until analysis. The content (concentration) of the tested substance A-111 in the receptor fluid and in individual compartments: on the surface of the epidermis, in the epidermis, in the receptor fluid was determined using measurements in a microplate reader at 281 nm on 96-well plates transmitting ultraviolet radiation.
In order to confirm proper bioavailability, studies of the permeation of compound A-111 from a solution in PEG400 were performed in a model of reconstructed human epidermis. […] The tested substance A-111 was applied onto the epidermis in the form of a 2% PEG400 solution in an amount of 15 μL. The finished experimental plate was incubated at 32° C. At specific time intervals, aliquots of the receptor fluid (0.5 mL) were collected for the analysis and replaced with fresh fluid. After 24 h of culture, all of the receptor fluid was collected. The examined tissue was washed with cotton buds soaked in methanol. The donor and receptor compartments were washed with methanol, and the epidermis was separated from the inserts and transferred to methanol. The content (concentration) of the tested substance A-111 in the acceptor fluid and in individual compartments: on the surface of the epidermis, in the epidermis, in the receptor fluid was determined using measurements in a microplate reader at 281 nm on 96-well plates transmitting ultraviolet radiation.
Permeation studies of the A-111 compound from a cosmetic formulation were performed in a model of reconstructed human epidermis. […] 25 μL of the formulation containing the tested compound A-111 was applied to the epidermis. […] The content (concentration) of the tested substance A-111 in the receptor fluid and in individual compartments: on the surface of the epidermis, in the epidermis, in the receptor fluid was determined using measurements in a microplate reader at 281 nm on 96-well plates transmitting ultraviolet radiation.

Data set [3] concerns Balb/c 3T3 murine fibroblast cell line. Description: Phototoxicity, neutral red uptake in Balb/c 3T3 fibroblasts. To be noted: for PIF (photoirritation factor): ratio of IC50 of unirradiated to irradiated cells; for cytotoxicity towards mouse fibroblasts: with and without UVA exposure. The procedure:
d) Phototoxicity Assessment Using the Balb/c 3T3 Murine Fibroblast Cell Line
Balb/c 3T3 cells, which are an immortalized murine fibroblast cell line, were purchased at ATTC and cultured in the medium recommended by the manufacturer (DMEM GlutaMAX, newborn calf serum (BCS), antibiotics). After multiplication, cells were placed in 96-well plates, which were incubated for 24 hours, after which all wells of the plates were washed with 150 μL of balanced salt solution (HBSS). Then, after drying the plates, 100 μL of a solution of the tested compounds in HBSS with 2% FBS was added to each well and incubated for an hour. After this time, some of the plates were irradiated using the Suntest CPS+sunlight simulator from Atlas with appropriate filters cutting off radiation with a wavelength <320 nm (UVA radiation intensity 5 J/cm^2). The second part of the plates was placed in radiation-free conditions for the same period of time. After the exposure time, the liquid was removed from all plates and the wells were washed twice with 150 μL of HBSS, then supplemented with fresh culture medium and incubated for 24 hours in an incubator (37° C., 5% CO2). Viability was assessed in the neutral red uptake test, which is based on the ability of the dye to penetrate only into living cells. Dye uptake was confirmed by absorbance measurement at 540 nm. […] The appropriate coefficients were also calculated: mean phototoxic effect (MPE) and photoirritation factor (PIF). PIF is the ratio of the IC50 values of unirradiated to irradiated cells, while MPE is based on the comparison of concentration-response curves.

T1 sequence (P11344 19-533): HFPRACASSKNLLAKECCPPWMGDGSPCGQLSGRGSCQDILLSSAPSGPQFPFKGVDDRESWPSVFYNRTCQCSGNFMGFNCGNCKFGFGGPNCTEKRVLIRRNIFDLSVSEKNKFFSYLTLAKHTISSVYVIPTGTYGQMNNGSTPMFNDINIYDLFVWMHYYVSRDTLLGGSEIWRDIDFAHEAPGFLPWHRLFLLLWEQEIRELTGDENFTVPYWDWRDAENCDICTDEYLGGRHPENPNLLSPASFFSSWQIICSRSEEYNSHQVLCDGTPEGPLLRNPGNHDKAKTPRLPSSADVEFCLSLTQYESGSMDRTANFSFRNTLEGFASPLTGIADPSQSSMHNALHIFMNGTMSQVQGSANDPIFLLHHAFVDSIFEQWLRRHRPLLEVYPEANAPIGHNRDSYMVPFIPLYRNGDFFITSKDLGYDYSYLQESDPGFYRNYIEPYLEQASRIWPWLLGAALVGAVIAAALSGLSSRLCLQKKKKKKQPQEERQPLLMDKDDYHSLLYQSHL

`O=C(/C=C/c1ccc(Cl)cc1)NCCCCCO` [Compound A-111, (2E)-3-(4-chlorophenyl)-N-(5-hydroxypentyl)prop-2-enamide]: the “inhibition of tyrosinase released from B16-F10 cells” value in data set [1] is “inhibit the activity of tyrosinase released from B16-F10 cells”. The epidermal permeation entry in data set [2] (2% A-111 in macrogol formulation (PEG400+PEG800), about 10 mg/cm^2, 24 h) was “crosses the epidermal barrier”. In addition, in data set [2] (2% A-111 in macrogol formulation, 24 h), the “accumulation in the epidermis” value is recorded as “no accumulation”. In addition, in data set [2] (2% PEG400 solution, 15 μL, 24 h), the epidermal permeation result is on record as “crosses the epidermal barrier”. Further, the epidermal permeation entry in data set [2] (released from cosmetic formulation, 25 μL, 24 h) is listed as “crosses the epidermal barrier”. In addition, in data set [3], the phototoxic potential result was “do not have phototoxic potential”, the “PIF (photoirritation factor)” value was “No phototoxicity” and the “cytotoxicity towards mouse fibroblasts” value is recorded as “devoid of cytotoxicity”.
Regarding `O=C(/C=C/c1ccccc1)NCCCCCO` [Compound A-133, (2E)-N-(5-hydroxypentyl)-3-phenylprop-2-enamide], in data set [3], the phototoxic potential entry is listed as “do not have phototoxic potential”, the “PIF (photoirritation factor)” value is given as “No phototoxicity” and the “cytotoxicity towards mouse fibroblasts” value was “devoid of cytotoxicity”.
